Test results from the supplement of paper PMC10307832.

Columns and labels:
Assay in all cases: relative viability (nuclei count vs DMSO), 5 days (fraction); higher = more cells survive
[1] = compound: C1/C(=C\C2=CC=CS2)/C(=O)/C(=C/C3=CC=CS3)/C1 + Cc1nc(Nc2ncc(C(=O)Nc3c(C)cccc3Cl)s2)cc(N2CCN(CCO)CC2)n1 [Dasatinib] (partner 0.075 µM)
Outline: (§1)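 Each reported value is a median over duplicate plates. It expresses relative viability: treated-well nuclei count divided by vehicle-well nuclei count. Lung cancer cell lines in 1536-well plates were dosed by pin tool a day after seeding, alone with one drug or with a fixed anchor-drug dose plus five library-drug doses (not always all listed) in √10 steps, and nuclei were counted after 5 days.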

TPCA-1 + Pictilisib = compound: C1=CC(=CC=C1C2=CC(=C(S2)NC(=O)N)C(=O)N)F [TPCA-1] + CS(=O)(=O)N1CCN(Cc2cc3nc(-c4cccc5[nH]ncc45)nc(N4CCOCC4)c3s2)CC1 [Pictilisib] (partner 1 µM)
Outline: as §1

[2] = compound: C[C@]12O[C@H](C[C@]1(O)CO)n1c3ccccc3c3c4c(c5c6ccccc6n2c5c31)CNC4=O [Lestaurtinib] + CCNC(=O)c1noc(-c2cc(C(C)C)c(O)cc2O)c1-c1ccc(CN2CCOCC2)cc1 [Luminespib] (partner 0.01 µM)
Outline: as §1

Lestaurtinib + Lapatinib = compound: C[C@]12O[C@H](C[C@]1(O)CO)n1c3ccccc3c3c4c(c5c6ccccc6n2c5c31)CNC4=O [Lestaurtinib] + CS(=O)(=O)CCNCc1ccc(-c2ccc3ncnc(Nc4ccc(OCc5cccc(F)c5)c(Cl)c4)c3c2)o1 [Lapatinib] (partner 2 µM)
Outline: as §1

Cell Line: NCI-H3122
- relative viability ([1]; first compound 0.2 µM): 0.843
- relative viability ([1]; first compound 0.6325 µM): 0.836
- relative viability ([1]; first compound 2 µM): 1.05
- relative viability ([1]; first compound 6.325 µM): 0.827
- relative viability ([1]; first compound 20 µM): 0.82
- relative viability (TPCA-1 + Pictilisib; first compound 0.04 µM): 0.725
- relative viability (TPCA-1 + Pictilisib; first compound 0.1265 µM): 0.511
- relative viability (TPCA-1 + Pictilisib; first compound 0.4 µM): 0.603
- relative viability (TPCA-1 + Pictilisib; first compound 1.265 µM): 0.612
- relative viability (TPCA-1 + Pictilisib; first compound 4 µM): 0.595
- relative viability ([2]; first compound 0.005 µM): 0.114
- relative viability ([2]; first compound 0.01581 µM): 0.116
- relative viability ([2]; first compound 0.05 µM): 0.115
- relative viability ([2]; first compound 0.1581 µM): 0.0939
- relative viability ([2]; first compound 0.5 µM): 0.088
- relative viability (Lestaurtinib + Lapatinib; first compound 0.005 µM): 1.07
- relative viability (Lestaurtinib + Lapatinib; first compound 0.01581 µM): 1.05
- relative viability (Lestaurtinib + Lapatinib; first compound 0.05 µM): 1.02
- relative viability (Lestaurtinib + Lapatinib; first compound 0.1581 µM): 0.98
- relative viability (Lestaurtinib + Lapatinib; first compound 0.5 µM): 0.414

Cell Line: PC-14
- relative viability ([1]; first compound 0.2 µM): 0.32
- relative viability ([1]; first compound 0.6325 µM): 0.264
- relative viability ([1]; first compound 2 µM): 0.285
- relative viability ([1]; first compound 6.325 µM): 0.241
- relative viability ([1]; first compound 20 µM): 0.222
- relative viability (TPCA-1 + Pictilisib; first compound 0.04 µM): 0.847
- relative viability (TPCA-1 + Pictilisib; first compound 0.1265 µM): 0.605
- relative viability (TPCA-1 + Pictilisib; first compound 0.4 µM): 0.526
- relative viability (TPCA-1 + Pictilisib; first compound 1.265 µM): 0.499
- relative viability (TPCA-1 + Pictilisib; first compound 4 µM): 0.322
- relative viability ([2]; first compound 0.005 µM): 0.154
- relative viability ([2]; first compound 0.01581 µM): 0.154
- relative viability ([2]; first compound 0.05 µM): 0.172
- relative viability ([2]; first compound 0.1581 µM): 0.108
- relative viability ([2]; first compound 0.5 µM): 0.151
- relative viability (Lestaurtinib + Lapatinib; first compound 0.005 µM): 0.437
- relative viability (Lestaurtinib + Lapatinib; first compound 0.01581 µM): 0.378
- relative viability (Lestaurtinib + Lapatinib; first compound 0.05 µM): 0.325
- relative viability (Lestaurtinib + Lapatinib; first compound 0.1581 µM): 0.286
- relative viability (Lestaurtinib + Lapatinib; first compound 0.5 µM): 0.31

Cell Line: EPLC-272H
- relative viability ([1]; first compound 0.2 µM): 0.322
- relative viability ([1]; first compound 0.6325 µM): 0.332
- relative viability ([1]; first compound 2 µM): 0.45
- relative viability ([1]; first compound 6.325 µM): 0.349
- relative viability ([1]; first compound 20 µM): 0.311
- relative viability (TPCA-1 + Pictilisib; first compound 0.04 µM): 0.381
- relative viability (TPCA-1 + Pictilisib; first compound 0.1265 µM): 0.285
- relative viability (TPCA-1 + Pictilisib; first compound 0.4 µM): 0.341
- relative viability (TPCA-1 + Pictilisib; first compound 1.265 µM): 0.38
- relative viability (TPCA-1 + Pictilisib; first compound 4 µM): 0.32
- relative viability ([2]; first compound 0.005 µM): 0.196
- relative viability ([2]; first compound 0.01581 µM): 0.235
- relative viability ([2]; first compound 0.05 µM): 0.184
- relative viability ([2]; first compound 0.1581 µM): 0.241
- relative viability ([2]; first compound 0.5 µM): 0.133
- relative viability (Lestaurtinib + Lapatinib; first compound 0.005 µM): 0.87
- relative viability (Lestaurtinib + Lapatinib; first compound 0.01581 µM): 1.06
- relative viability (Lestaurtinib + Lapatinib; first compound 0.05 µM): 0.616
- relative viability (Lestaurtinib + Lapatinib; first compound 0.1581 µM): 0.513
- relative viability (Lestaurtinib + Lapatinib; first compound 0.5 µM): 0.5

Cell Line: A-427
- relative viability ([1]; first compound 0.2 µM): 0.841
- relative viability ([1]; first compound 0.6325 µM): 0.721
- relative viability ([1]; first compound 2 µM): 0.644
- relative viability ([1]; first compound 6.325 µM): 0.722
- relative viability ([1]; first compound 20 µM): 0.708
- relative viability (TPCA-1 + Pictilisib; first compound 0.04 µM): 0.756
- relative viability (TPCA-1 + Pictilisib; first compound 0.1265 µM): 0.591
- relative viability (TPCA-1 + Pictilisib; first compound 0.4 µM): 0.687
- relative viability (TPCA-1 + Pictilisib; first compound 1.265 µM): 0.626
- relative viability (TPCA-1 + Pictilisib; first compound 4 µM): 0.164
- relative viability ([2]; first compound 0.005 µM): 1.03
- relative viability ([2]; first compound 0.01581 µM): 0.797
- relative viability ([2]; first compound 0.05 µM): 0.649
- relative viability ([2]; first compound 0.1581 µM): 0.298
- relative viability ([2]; first compound 0.5 µM): 0.185
- relative viability (Lestaurtinib + Lapatinib; first compound 0.005 µM): 1.03
- relative viability (Lestaurtinib + Lapatinib; first compound 0.01581 µM): 1.06
- relative viability (Lestaurtinib + Lapatinib; first compound 0.05 µM): 1
- relative viability (Lestaurtinib + Lapatinib; first compound 0.1581 µM): 0.711
- relative viability (Lestaurtinib + Lapatinib; first compound 0.5 µM): 0.225
